Source: ChEMBL document CHEMBL2029244, “Synthesis and antimycobacterial activity of prodrugs of sulfur dioxide (SO2)” (Bioorg Med Chem Lett, 2012)
≈ marks a conversion by molar mass, not a printed value.

Tested on: not listed separately
Assay: Drug degradation assessed as decrease in compound level at pH 7.4 after 30 mins in the presence of 2-mercaptoethanol
Assay type: physicochemical
Conditions: buffer, pH 7.4, 0.5 h; call rule not given here
With `COc1ccc(NS(=O)(=O)c2ccc([N+](=O)[O-])cc2[N+](=O)[O-])cc1` the Drug degradation was “Active”.

Tested on: Mycobacterium tuberculosis
Assay: Antimycobacterial activity against Mycobacterium tuberculosis H37Rv after 28 days
Assay type: functional
Conditions: 672 h
In the case of `COc1ccc(CNS(=O)(=O)c2ccc([N+](=O)[O-])cc2[N+](=O)[O-])cc1`, the MIC is reported as 0.25 µg/mL (≈ 0.681 µM). Molecule `O=[N+]([O-])c1ccc(S(=O)(=O)NCc2ccc(Cl)cc2)c([N+](=O)[O-])c1` has an MIC of 0.4 µg/mL (≈ 1.08 µM). In the case of `O=[N+]([O-])c1ccc(S(=O)(=O)NCc2ccc(C(F)(F)F)cc2)c([N+](=O)[O-])c1`, the MIC is reported as 0.4 µg/mL (≈ 0.987 µM). In the case of `O=[N+]([O-])c1ccc(S(=O)(=O)NCc2ccccc2C(F)(F)F)c([N+](=O)[O-])c1`, the MIC is reported as 1.56 µg/mL (≈ 3.85 µM). In the case of `COc1ccccc1NS(=O)(=O)c1ccc([N+](=O)[O-])cc1[N+](=O)[O-]`, the MIC is reported as 3.13 µg/mL (≈ 8.86 µM). Molecule `O=[N+]([O-])c1ccc(S(=O)(=O)Nc2ccc(F)cc2)c([N+](=O)[O-])c1` has an MIC of 6.25 µg/mL (≈ 18.3 µM). `N#Cc1ccc(NS(=O)(=O)c2ccc([N+](=O)[O-])cc2[N+](=O)[O-])cc1` showed an MIC of over 50 µg/mL. For `C[C@H](NS(=O)(=O)c1ccc([N+](=O)[O-])cc1[N+](=O)[O-])c1ccccc1`, the MIC was 1.56 µg/mL (≈ 4.44 µM). Work on `C[C@@H](NS(=O)(=O)c1ccc([N+](=O)[O-])cc1[N+](=O)[O-])c1ccccc1` yielded an MIC of 1.56 µg/mL (≈ 4.44 µM). For `O=[N+]([O-])c1ccc(S(=O)(=O)NCCc2ccccc2)c([N+](=O)[O-])c1`, the MIC was 0.4 µg/mL (≈ 1.14 µM). `O=[N+]([O-])c1ccc(S(=O)(=O)N(Cc2ccccc2)c2ccccc2)c([N+](=O)[O-])c1` gave an MIC of 1.56 µg/mL (≈ 3.77 µM). In the case of `CN(c1ccccc1)S(=O)(=O)c1ccc([N+](=O)[O-])cc1[N+](=O)[O-]`, the MIC is reported as 0.78 µg/mL (≈ 2.31 µM). `CN(CCc1ccccc1)S(=O)(=O)c1ccc([N+](=O)[O-])cc1[N+](=O)[O-]` gave an MIC of 0.78 µg/mL (≈ 2.13 µM). With `O=[N+]([O-])c1ccc(S(=O)(=O)N(CCc2ccccc2)Cc2ccccc2)c([N+](=O)[O-])c1` the MIC was 3.13 µg/mL (≈ 7.09 µM). For `CC[C@@H](CO)NCCN[C@@H](CC)CO` [ETHAMBUTOL], the MIC was 1.56 µg/mL (≈ 7.64 µM). Work on `NNC(=O)c1ccncc1` [ISONIAZID] yielded an MIC of 0.05 µg/mL (≈ 0.365 µM). Molecule `NC(=O)c1cnccn1` [PYRAZINAMIDE] has an MIC of 6.25 µg/mL (≈ 50.8 µM).

Tested on: not listed separately
Assay: Drug degradation assessed as 2-hydroxyethylthio-2,4-dinitrobenzene production at pH 7.4 after 6 hrs in the presence of 2-mercaptoethanol
Assay type: physicochemical
Conditions: buffer, pH 7.4, 6 h
In the case of `COc1ccc(NS(=O)(=O)c2ccc([N+](=O)[O-])cc2[N+](=O)[O-])cc1`, the Drug degradation is reported as “Active”.
